Earlier results on 1 compound are cited in patent publication US20140371322A1, “Phenoxybenzamine Transdermal Composition” (PROFESSIONAL COMPOUNDING CENTERS OF AMERICA, priority 2013, published 2014).

The structures appear in SMILES notation.

The conditions of data set [1]: weak base.

In the case of `CC(COc1ccccc1)N(CCCl)Cc1ccccc1` (centres unmarked) [phenoxybenzamine], the “octanol/water log P partition coefficient” value is 4.6. Further, in data set [1], the “pka (dissociation constant)” value is reported as 6.58.
